Measurements from patent US11254640B2, “N-substituted indoles and other heterocycles for treating brain disorders” (The Regents of the University of California, priority 2019, dated 2022).
Entries after “also recorded” stand apart in the source; their conditions may differ.

Key:
5HT2A sensor = 5HT2A sensor assay, agonist mode (sLight1.3s HEK293T stable line); type: cell-based; conditions: percent relative to 5-HT at 100 uM; for 5HT2A Agonist mean @ 100 nM (%): 100 nM compound; for 5HT2A Agonist mean @ 10 μM (%): 10 μM compound; for 5HT2A Agonist mean @ 100 μM (%): 100 μM compound
Summary of the method: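 Fluorescence change, dFF=(Fsat−Fapo)/Fapo, was taken from membrane images (460 nm excitation) before and after compound addition and scaled as % activation, with the DMSO mean as 0 and the 5HT mean as 100. The cells were sLight1.3s HEK293T in HBSS. Final compound levels were 100 μM, 10 μM and 100 nM in 0.1% DMSO, in triplicate.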

cortical neurons = assay: Dendritogenesis assay, Sholl analysis; type: cell-based, rat; conditions: for Emax at 10 µM: Rattus norvegicus, Cortical neurone, Nmax with vehicle (DMSO) = 0% and ketamine = 100%, read-out: % efficacy in sholls; for psychoplastogenic efficacy and potency, concentration-response (Nmax): concentrations ranging from 10 μM to 10 pM (FIG. 6)
Summary of the method: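 Rat cortical neurons (timed-pregnant Sprague Dawley) were treated at DIV3 with compound at 10 μM unless noted (0.1% DMSO) for 1 h, washed out, grown 71 h more. Fixed, MAP2-immunostained, imaged; Sholl Nmax, with % efficacy scaled to DMSO (0%) and ketamine (100%).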

C57BL/6J mice = assay: Head twitch response (HTR) assay; type: in vivo, mouse; conditions: intraperitoneal injection, head-twitches over 20 mins (FIG. 8, FIG. 9)
Description: Animals. For the dendritogenesis experiments, timed pregnant Sprague Dawley rats were obtained from Charles River Laboratories (Wilmington, Mass.). For the head-twitch response assay, male and female C57BL/6J mice were obtained from Jackson Laboratory (Sacramento, Calif.). Mice were housed in a temperature and humidity-controlled room maintained on a 12-h light/dark cycle in groups of 4-5 (same sex). Animals weighed between 17 and 30 g at the time of the experiments. All experimental procedures involving rodents were approved by the UC Davis Institutional Animal Care and Use Committee (IACUC) and adhered to principles described in the National Institutes of Health Guide for the Care and Use of Laboratory Animals. The University of California, Davis and the University of California, San Francisco are accredited by the Association for Assessment and Accreditation of Laboratory Animal Care International (AAALAC).
Head twitch response experiments. Mice (9-10 weeks old) were injected intraperitoneally with compound (injection volume 5 ml/kg), placed in an empty cage, and filmed for 20 minutes. Cages were cleaned with 70% ethanol between experiments.

| Structure (SMILES) | 5HT2A Agonist mean @ 100 nM (%) (5HT2A sensor) | 5HT2A Agonist mean @ 10 μM (%) (5HT2A sensor) | 5HT2A Agonist mean @ 100 μM (%) (5HT2A sensor) | Emax at 10 µM (cortical neurons; 10 μM) [%] | head-twitch response (hallucinogenic potential) (C57BL/6J mice) | psychoplastogenic efficacy and potency, concentration-response (Nmax) (cortical neurons) | dendritic arbor complexity / neuronal growth (Nmax of Sholl plots) (cortical neurons; cortical neurons, 10 μM) |
| --- | --- | --- | --- | --- | --- | --- | --- |
| COc1cccc2c1ccn2CCN(C)C.O=C(O)/C=C/C(=O)O [Example 3, 2-(4-methoxy-1H-indol-1-yl)-N,N-dimethylethan-1-amine] | B (does not activate 5HT2A sensor assay in agonist mode) | B (does not activate 5HT2A sensor assay in agonist mode) | B (does not activate 5HT2A sensor assay in agonist mode) | 26 | – | – | – |
| COc1ccc2c(ccn2CCN(C)C)c1.O=C(O)/C=C/C(=O)O [Example 4, 2-(5-methoxy-1H-indol-1-yl)-N,N-dimethylethan-1-amine] | B (does not activate 5HT2A sensor assay in agonist mode) | B (does not activate 5HT2A sensor assay in agonist mode) | A (activates 5HT2A sensor assay in agonist mode) | 65 | low hallucinogenic potential; also recorded: did not produce any HTR | exceptional psychoplastogen | – |
| COc1ccc2ccn(CCN(C)C)c2c1 [Example 5, 2-(6-methoxy-1H-indol-1-yl)-N,N-dimethylethan-1-amine] | B (does not activate 5HT2A sensor assay in agonist mode) | B (does not activate 5HT2A sensor assay in agonist mode) | A (activates 5HT2A sensor assay in agonist mode) | 95 | significantly less potent | comparable maximum efficacies and had similar potencies as isosteric DMTs (1 and 28) | performed identically to 28 and 29 |
| COc1cccc2ccn(CCN(C)C)c12.O=C(O)/C=C/C(=O)O [Example 6, 2-(7-methoxy-1H-indol-1-yl)-N,N-dimethylethan-1-amine] | B (does not activate 5HT2A sensor assay in agonist mode) | B (does not activate 5HT2A sensor assay in agonist mode) | B (does not activate 5HT2A sensor assay in agonist mode) | 92 | – | – | – |
| COc1ccc2c(ccn2C[C@@H](C)N(C)C)c1 [Example 59, (R)-1-(5-methoxy-1H-indol-1-yl)-N,N-dimethylpropan-2-amine] | B (does not activate 5HT2A sensor assay in agonist mode) | B (does not activate 5HT2A sensor assay in agonist mode) | B (does not activate 5HT2A sensor assay in agonist mode) | – | did not produce any HTR | – | – |
| C[C@H](Cn1ccc2cc(F)ccc21)N(C)C [Example 60, (R)-1-(5-fluoro-1H-indol-1-yl)-N,N-dimethylpropan-2-amine] | B (does not activate 5HT2A sensor assay in agonist mode) | B (does not activate 5HT2A sensor assay in agonist mode) | A (activates 5HT2A sensor assay in agonist mode) | – | did not produce any HTR | – | – |
